Results from ChEMBL document CHEMBL1153340, “Inhibitors of HIV-1 attachment. Part 2: An initial survey of indole substitution patterns” (Bioorg Med Chem Lett, 2009).

Assays:
[1] = Cmax in rat at 25 mg/kg, po dosed as solution in PEG400/EtOH; format: ADME, organism-based; design: dose 25 mg/kg, route oral; conditions: in vivo
[2] = Cytotoxicity against human HeLa67 cells expressing CD4/CCR5 after 3 days by XTT assay; format: cell-based
[3] = system: Human immunodeficiency virus 1; assay: Antiviral activity against pseudotype HIV1 JRFL infected in human HeLa67 cells expressing CD4/CCR5 after 3 days by luciferase reporter gene assay; format: functional, organism-based; conditions: Human immunodeficiency virus 1, JRFL, HeLa67, 72 h
[4] = Clearance in rat at 5 mg/kg, iv dosed as solution in PEG400/EtOH; format: ADME, organism-based; design: dose 5 mg/kg, route intravenous; conditions: in vivo
[5] = Volume of distribution at steady state in rat at 5 mg/kg, iv dosed as solution in PEG400/EtOH; format: ADME, organism-based; design: dose 5 mg/kg, route intravenous; conditions: in vivo, read-out: Vdss
[6] = Terminal half life in rat at 5 mg/kg, iv dosed as solution in PEG400/EtOH; format: ADME, organism-based; design: dose 5 mg/kg, route intravenous; conditions: in vivo, read-out: beta t1/2
[7] = Mean residence time in rat at 5 mg/kg, iv dosed as solution in PEG400/EtOH; format: ADME, organism-based; design: dose 5 mg/kg, route intravenous; conditions: in vivo
[8] = Tmax in rat at 25 mg/kg, po dosed as solution in PEG400/EtOH; format: ADME, organism-based; design: dose 25 mg/kg, route oral; conditions: in vivo
[9] = Terminal half life in rat at 25 mg/kg, po dosed as solution in PEG400/EtOH; format: ADME, organism-based; design: dose 25 mg/kg, route oral; conditions: in vivo, read-out: beta t1/2
[10] = Oral bioavailability in rat at 25 mg/kg dosed as solution in PEG400/EtOH; format: ADME, organism-based; conditions: in vivo
[11] = Permeability across human Caco-2 cells; format: ADME, cell-based; conditions: read-out: permeability
[12] = Clearance in rat at 1 mg/kg, iv dosed as solution in PEG400/EtOH; format: ADME, organism-based; design: dose 1 mg/kg, route intravenous; conditions: in vivo
[13] = Volume of distribution at steady state in rat at 1 mg/kg, iv dosed as solution in PEG400/EtOH; format: ADME, organism-based; design: dose 1 mg/kg, route intravenous; conditions: in vivo, read-out: Vdss
[14] = Terminal half life in rat at 1 mg/kg, iv dosed as solution in PEG400/EtOH; format: ADME, organism-based; design: dose 1 mg/kg, route intravenous; conditions: in vivo, read-out: beta t1/2
[15] = Mean residence time in rat at 1 mg/kg, iv dosed as solution in PEG400/EtOH; format: ADME, organism-based; design: dose 1 mg/kg, route intravenous; conditions: in vivo
[16] = Cmax in rat at 5 mg/kg, po dosed as solution in PEG400/EtOH; format: ADME, organism-based; design: dose 5 mg/kg, route oral; conditions: in vivo
[17] = Tmax in rat at 5 mg/kg, po dosed as solution in PEG400/EtOH; format: ADME, organism-based; design: dose 5 mg/kg, route oral; conditions: in vivo
[18] = Terminal half life in rat at 5 mg/kg, po dosed as solution in PEG400/EtOH; format: ADME, organism-based; design: dose 5 mg/kg, route oral; conditions: in vivo, read-out: beta t1/2
[19] = Oral bioavailability in rat at 5 mg/kg dosed as solution in PEG400/EtOH; format: ADME, organism-based; conditions: in vivo
[20] = system: Human immunodeficiency virus 1; assay: Antiviral activity against pseudotype HIV1 LAI infected in human HeLa67 cells expressing CD4/CCR5 after 3 days by luciferase reporter gene assay; format: functional, organism-based; conditions: Human immunodeficiency virus 1, LAI, HeLa67, 72 h

Structure (SMILES)	EC50 [3] [nM]	CC50 at 72 h [2] [µM]	also measured
O=C(C(=O)N1CCN(C(=O)c2ccccc2)CC1)c1c[nH]c2ccccc12	153	339	Cmax [1]: 1040 ng/mL; clearance [4]: 57 mL/min/kg; Vd [5]: 1.5 L/kg; half-life [6]: 0.5 h; MRT [7]: 0.433 h; Tmax [8]: 0.55 h; half-life [9]: 2.72 h; bioavailability [10]: 29%; Papp [11]: 22.8 ×10⁻⁶ cm/s
N#Cc1ccc2[nH]cc(C(=O)C(=O)N3CCN(C(=O)c4ccccc4)CC3)c2c1	121000	> 300	–
O=C(C(=O)N1CCN(C(=O)c2ccccc2)CC1)c1c[nH]c2cccc([N+](=O)[O-])c12	150	> 300	–
CC(=O)Oc1ccc2[nH]cc(C(=O)C(=O)N3CCN(C(=O)c4ccccc4)CC3)c2c1	952	95.2	–
CC(=O)Oc1cccc2[nH]cc(C(=O)C(=O)N3CCN(C(=O)c4ccccc4)CC3)c12	24900	> 300	–
C/C=C/n1cc(C(=O)C(=O)N2CCN(C(=O)c3ccccc3)CC2)c2ccccc21	6760	202	–
O=C(C(=O)N1CCN(C(=O)c2ccccc2)CC1)c1c[nH]c2c(F)c(F)c(F)c(F)c12	1.7	55.7	–
CCn1cc(C(=O)C(=O)N2CCN(C(=O)c3ccccc3)CC2)c2ccccc21	1450	> 300	–
O=C(C(=O)N1CCN(C(=O)c2ccccc2)CC1)c1cn(Cc2ccccc2)c2ccccc12	13800	182	–
CCCCn1cc(C(=O)C(=O)N2CCN(C(=O)c3ccccc3)CC2)c2ccccc21	2650	> 300	–
O=C(C(=O)N1CCN(C(=O)c2ccccc2)CC1)c1c[nH]c2ccc([N+](=O)[O-])cc12	3800	44.6	–
O=C(C(=O)N1CCN(C(=O)c2ccccc2)CC1)c1c[nH]c2ccc(F)cc12	838	> 300	–
O=C(C(=O)N1CCN(C(=O)c2ccccc2)CC1)c1c[nH]c2ccc(Br)cc12	1090	> 149	–
Cc1ccc2[nH]cc(C(=O)C(=O)N3CCN(C(=O)c4ccccc4)CC3)c2c1	1550	> 300	–
O=C(C(=O)N1CCN(C(=O)c2ccccc2)CC1)c1c[nH]c2cc(F)c(Br)c(F)c12	23.1	20.9	–
O=C(C(=O)N1CCN(C(=O)c2ccccc2)CC1)c1c[nH]c2cc(F)c(F)cc12	> 290	170	–
N#Cc1cccc2c(C(=O)C(=O)N3CCN(C(=O)c4ccccc4)CC3)c[nH]c12	4.9	234	–
CCCCOc1cccc2c(C(=O)C(=O)N3CCN(C(=O)c4ccccc4)CC3)c[nH]c12	0.14	64.5	–
O=C(C(=O)N1CCN(C(=O)c2ccccc2)CC1)c1c[nH]c2cc(F)cc(F)c12	0.42	> 188	–
O=C(C(=O)N1CCN(C(=O)c2ccccc2)CC1)c1c[nH]c2cc(C(F)(F)F)ccc12	> 5000	54.5	–
O=C(C(=O)N1CCN(C(=O)c2ccccc2)CC1)c1c[nH]c2cc(Cl)c(F)cc12	> 500	98.5	–
Cn1cc(C(=O)C(=O)N2CCN(C(=O)c3ccccc3)CC2)c2ccccc21	265	226	–
O=C(C(=O)N1CCN(C(=O)c2ccccc2)CC1)c1c[nH]c2c(Br)cc(F)cc12	73.1	22.5	–
O=C(C(=O)N1CCN(C(=O)c2ccccc2)CC1)c1c[nH]c2cc(Cl)c(Cl)cc12	–	52.3	EC50 [20]: 0.5 µM
O=C(C(=O)N1CCN(C(=O)c2ccccc2)CC1)c1c[nH]c2cc(F)ccc12	21.1	> 245	–

Now from value to compound, other results behind:

EC50 [3] [nM]	Structure (SMILES)	CC50 at 72 h [2] [µM]	also measured
0.5	CCOc1cccc2c(C(=O)C(=O)N3CCN(C(=O)c4ccccc4)CC3)c[nH]c12	117	–
0.07	COc1ccc(Cl)c2[nH]cc(C(=O)C(=O)N3CCN(C(=O)c4ccccc4)CC3)c12	> 300	–
4.5	O=C(C(=O)N1CCN(C(=O)c2ccccc2)CC1)c1c[nH]c2cccc(Br)c12	142	–
208	O=C(C(=O)N1CCN(C(=O)c2ccccc2)CC1)c1c[nH]c2cc(Cl)ccc12	> 110	–
329	COc1ccc2c(C(=O)C(=O)N3CCN(C(=O)c4ccccc4)CC3)c[nH]c2c1	> 300	–
21100	COc1ccc2[nH]cc(C(=O)C(=O)N3CCN(C(=O)c4ccccc4)CC3)c2c1	> 300	–
0.45	CCOc1cccc2[nH]cc(C(=O)C(=O)N3CCN(C(=O)c4ccccc4)CC3)c12	> 94.8	–
42.8	O=C(C(=O)N1CCN(C(=O)c2ccccc2)CC1)c1c[nH]c2c(Br)ccc(OC(F)(F)F)c12	75.7	–
395	O=C(C(=O)N1CCN(C(=O)c2ccccc2)CC1)c1c[nH]c2ccc(Cl)cc12	46	–
0.13	O=C(C(=O)N1CCN(C(=O)c2ccccc2)CC1)c1c[nH]c2c(Br)ccc(F)c12	39.8	–
0.35	O=C(C(=O)N1CCN(C(=O)c2ccccc2)CC1)c1c[nH]c2c(F)ccc(F)c12	> 300	clearance [12]: 46.9 mL/min/kg; Vd [13]: 0.85 L/kg; half-life [14]: 0.283 h; MRT [15]: 0.317 h; Cmax [16]: 55 ng/mL; Tmax [17]: 0.333 h; half-life [18]: 9.18 h; bioavailability [19]: 11%; Papp [11]: 21.9 ×10⁻⁶ cm/s
24.2	CCc1cccc2c(C(=O)C(=O)N3CCN(C(=O)c4ccccc4)CC3)c[nH]c12	> 49	–
1.9	N#Cc1ccc(F)c2c(C(=O)C(=O)N3CCN(C(=O)c4ccccc4)CC3)c[nH]c12	> 300	–
17.4	O=C(C(=O)N1CCN(C(=O)c2ccccc2)CC1)c1c[nH]c2c(Br)cccc12	64	–
89.5	Cc1cccc2c(C(=O)C(=O)N3CCN(C(=O)c4ccccc4)CC3)c[nH]c12	> 218	–
> 500	N#Cc1ccc(F)c2[nH]cc(C(=O)C(=O)N3CCN(C(=O)c4ccccc4)CC3)c12	> 300	–

EC50 [3] [nM]	Structure (SMILES)	CC50 at 72 h [2] [µM]	also measured
> 500	Cc1ccc(C)c2c(C(=O)C(=O)N3CCN(C(=O)c4ccccc4)CC3)c[nH]c12	202	–
20100	O=C(C(=O)N1CCN(C(=O)c2ccccc2)CC1)c1c[nH]c2cccc(O)c12	> 300	–
0.13	COc1ccc(Br)c2[nH]cc(C(=O)C(=O)N3CCN(C(=O)c4ccccc4)CC3)c12	118	–
0.56	Cc1ccc(F)c2c(C(=O)C(=O)N3CCN(C(=O)c4ccccc4)CC3)c[nH]c12	87.5	–
0.23	COc1ccc(OC)c2c(C(=O)C(=O)N3CCN(C(=O)c4ccccc4)CC3)c[nH]c12	279	clearance [12]: 5.2 mL/min/kg; Vd [13]: 0.52 L/kg; half-life [14]: 2.3 h; MRT [15]: 1.7 h; Cmax [16]: 3200 ng/mL; Tmax [17]: 3 h; half-life [18]: 1.85 h; bioavailability [19]: 107%
0.06	COc1ccc(C#N)c2[nH]cc(C(=O)C(=O)N3CCN(C(=O)c4ccccc4)CC3)c12	> 275	–
7.3	O=C(C(=O)N1CCN(C(=O)c2ccccc2)CC1)c1c[nH]c2c(F)cccc12	> 152	–
46500	COc1cc2[nH]cc(C(=O)C(=O)N3CCN(C(=O)c4ccccc4)CC3)c2cc1OC	> 300	–
4.4	O=C(C(=O)N1CCN(C(=O)c2ccccc2)CC1)c1c[nH]c2c(Cl)cccc12	162	–
> 500	CC(C)Oc1cccc2[nH]cc(C(=O)C(=O)N3CCN(C(=O)c4ccccc4)CC3)c12	150	–
0.06	COc1ccc(F)c2c(C(=O)C(=O)N3CCN(C(=O)c4ccccc4)CC3)c[nH]c12	> 300	–
6.6	COc1cccc2c(C(=O)C(=O)N3CCN(C(=O)c4ccccc4)CC3)c[nH]c12	154	–
0.71	O=C(C(=O)N1CCN(C(=O)c2ccccc2)CC1)c1c[nH]c2c(OCC(F)(F)F)ccc(F)c12	196	–
4.3	O=C(C(=O)N1CCN(C(=O)c2ccccc2)CC1)c1c[nH]c2cccc(Cl)c12	212	–
0.52	COc1cccc2[nH]cc(C(=O)C(=O)N3CCN(C(=O)c4ccccc4)CC3)c12	> 300	–
8.2	O=C(C(=O)N1CCN(C(=O)c2ccccc2)CC1)c1c[nH]c2c(F)ccc(Br)c12	86	–
